Results published in a melting point compilation (Tetko et al.).

melting point	SMILES
184 to 187 °C	O=C(O)C1CC(c2ccccc2)CCC1C(=O)c1ccccc1 (centres undefined)
198 to 200 °C	NC(=S)Nc1ccc2c(c1)OCO2
103 °C	COc1cc(OC)c(C(C)=O)c(OC)c1
102 °C	O=C(c1ccccc1)c1ccc(Cl)c(Cl)c1
52 °C	NCCCCCCCCN
188 to 192 °C	O=C(Oc1c(Cl)cc(Cl)cc1Cl)C(=O)Oc1c(Cl)cc(Cl)cc1Cl
60 °C	COC(=O)c1c(C)c(Br)c(OC)c(Br)c1OC
244 to 245 °C	CCC(=N\NC(N)=O)/C(C)=N\NC(N)=O
197 to 200 °C	O=C(O)C12CC3CC(C1)CC(c1ccc([N+](=O)[O-])cc1)(C3)C2
118 to 120 °C	Nc1n[nH]c(-c2ccccc2)c1Br
138 °C	CC1CCC(C(C)C)C(OC(=O)C(C(=O)c2ccccc2)C(=O)c2ccccc2)C1 (centres undefined)
130 °C	Cc1ccc(NN=C2C(=O)OC(C)(C)OC2=O)cc1
197 to 200 °C	Cc1onc(-c2ccc(F)cc2)c1C(=O)O
29.5 °C	Cc1ccc(-c2ccccc2)cc1C
87 to 90 °C	O=C(Oc1c(F)c(F)c(F)c(F)c1F)c1ccccc1N1CCOCC1
148 °C	CC12CCCC1C1CCC3CC(Cc4ccccc4)CCC3(C)C1CC2 (centres undefined)
53.5 °C	CCOC(=O)C1(S(=O)(=O)c2ccc(C)cc2)CCC1
60 °C	CC(=O)c1ccsc1
385 °C	O=C1c2ccccc2-c2ccc3c4c(ccc1c24)-c1ccccc1C3=O
102 to 107 °C	CC(=O)NC1C(OCc2ccccc2)OC(COC(c2ccccc2)(c2ccccc2)c2ccccc2)C(O)C1O (centres undefined)
57 °C	CSc1ccc(N)cc1C(F)(F)F
102 °C	CCCCCCCc1ccc(NC(=O)c2ccc(CC)cc2)cc1

melting point	SMILES
135 °C	Cc1cc(Cc2cc(C)cc(C3(C)CCCCC3)c2O)c(O)c(C2(C)CCCCC2)c1
183 °C	CCC(C(=O)O)c1ccc(N2Cc3ccccc3C2=O)cc1 (centres undefined)
159 to 160 °C	O=C1OC(c2ccccc2)=NC1=Cc1ccc(-c2ccccc2Br)o1
-12 °C	CCCCC(c1ccccc1)c1ccccc1
122 to 124 °C	Cc1sc2c(c1C)C(=O)CS(=O)(=O)N2C
133 °C	CC(C)Nc1nc(N)nc(Cl)n1
179 °C	NS(=O)(=O)c1cc(C(=O)OCOC(=O)c2ccccc2)c(NCc2ccco2)cc1Cl
91 °C	O=[N+]([O-])c1ncccc1Cl
123 to 124 °C	COC(=O)CCC(C)C1CCC2C3C(=O)C(Br)C4CCCCC4(C)C3CCC12C (centres undefined)
72 to 74 °C	O=Cc1ccc(-c2ccccc2OC(F)(F)F)o1
102 to 103 °C	CC12CCC(/C(=C/N(Cl)c3ccccc3)C1=O)C2(C)C (centres undefined)
76 °C	COC(=O)c1cccoc1=O
131 °C	CC(=O)C(C(=O)c1ccccc1)c1cc(Cl)c([N+](=O)[O-])cc1[N+](=O)[O-] (centres undefined)
166 to 168 °C	ON=C1CCCc2nonc21
154 °C	Cc1c(C)c(C)c2c(c1C)CCC2=O
117 to 121 °C	CSC(=CC(=C(C#N)C#N)c1ccccc1)SC
140 °C	CC1=NN(c2ccccc2)C(=O)C1Cc1ccccc1O (centres undefined)
279 °C	CC1(C)CC(=O)C2=C(C1)Nc1c(ccc3ccccc13)C2c1ccc(F)cc1 (centres undefined)
240 °C	O=[N+]([O-])c1cccc(-c2nnc3n2CN(c2cccc([N+](=O)[O-])c2)CS3)c1
50 to 52 °C	O=S(=O)(Cl)c1ccc2c(c1)OCCCO2
145 °C	Nc1ccc(CC(=O)c2ccc(N)cc2)cc1
274 °C	C[C@H](O)[C@@H](N)C(=O)O

melting point	SMILES
74 °C	CC12CCC(C(COC=O)C1=O)C2(C)C (centres undefined)
52 °C	CC(C)(Oc1ccc(Cl)cc1)C(=O)OCCCOC(=O)C(C)(C)Oc1ccc(Cl)cc1
110 to 111 °C	Cc1ccc(-c2ccc(C=CC(=O)c3ccco3)o2)cc1
100 to 102 °C	CCc1cc(C(=O)c2ccc(OC)cc2)c(N)s1
260 to 262 °C	COC(=O)C1=C(C(=O)OC)CC2=C(CC3=C(C2)CC(C(=O)OC)=C(C(=O)OC)C3)C1
-100 °C	CC1=CC1
215 to 220 °C	Cn1nc(N)c2c(=O)cc[nH]c21
190 to 192 °C	Nc1ccc(Cl)cc1C(=O)c1cccc(O)c1
254 °C	O=C(Nc1ccccc1)C(=O)Nc1ccccc1
156 °C	CC(=O)C1CCC2C3CC(C)C4=CC(=O)CCC4(C)C3C(O)CC12C (centres undefined)
192 °C	Cc1ccc(S(=O)(=O)NC(=O)NC2C3CCC(C)(C2O)C3(C)C)cc1 (centres undefined)
90 to 91 °C	O=C(Cl)c1cccnc1Oc1ccccc1
39 to 41 °C	N#CCc1coc2ccccc12
81.5 to 84 °C	O=S(=O)(Cl)c1cc(C(F)(F)F)ccc1N1CCOCC1
126 °C	CC(=O)c1ccc(-c2ccc(Br)cc2)cc1
-70 °C	CN(C)CCN
72.5 °C	O=S(=O)(O)c1ccc(-c2ccc(S(=O)(=O)O)cc2)cc1
-15 °C	CCCCCCCCCCCCCC(C)CC (centres undefined)
128 °C	COc1ccc2c(c1)OC1c3ccc(O)cc3OCC21 (centres undefined)
-80 °C	CC(C)OC=O
151 °C	O=C(CNc1ccc(NCC(=O)c2ccccc2)cc1)c1ccccc1
204 °C	CC(C)(C)N(NC(=O)c1ccccc1)C(=O)c1cccc(C(F)(F)F)c1

melting point	SMILES
190 to 195 °C	Oc1ccc2ncccc2c1
170 °C	CC1(C)C2CCC1(C)C(/N=C\c1ccc([N+](=O)[O-])cc1)C2/N=C/c1ccc([N+](=O)[O-])cc1 (centres undefined)
176 °C	COc1nc2c(c(=O)n(C)c(=O)n2C)n1C
139 to 141 °C	N#Cc1cccc(-n2cccc2C=O)c1
78 °C	O=C1CCCCCCCN1
39 to 41 °C	Cc1cc(Cl)c2ccccc2n1
-70.7 °C	CCCCC(=O)OCCC
258 °C	O=C(O)CCc1cc2c(cc1[N+](=O)[O-])CCC(=O)N2
66 °C	c1ccc(OCCOCCOc2ccccc2)cc1
75 °C	CCOC(=O)c1c(-c2ccc(OC)cc2)csc1N
125 to 128 °C	O=C(O)CSCSCC(=O)O
109 °C	CC(C)C12CCC(C)(O1)C(=O)OC2=O (centres undefined)
50 to 52 °C	CCOC(=O)c1cccc(-c2nccs2)c1
290 to 292 °C	Cc1c(C(=O)O)sc2ccc(Cl)cc12
30 °C	O=C(CCCCl)c1ccc(Cl)cc1
265 to 268 °C	c1ccc2c(P(c3cccc4ccccc34)c3cccc4ccccc34)cccc2c1
35 to 36 °C	Cc1ccc2sccc2c1
136 °C	C=C1C(=CC=C2CCCC3(C)C2CCC3C(C)CCCC(C)C)CC(O)CC1O (centres undefined)
151 °C	O=C(O)c1cc(-c2ccco2)on1
140 °C	Cc1ccc(C)c2c1C(=O)c1ccccc1C2=O
49 °C	COC(=O)c1ccc(C)c(OC)c1
158 °C	Cc1ccc(NC(=O)CC2C(=O)C3(C)CCC2C3(C)C)cc1 (centres undefined)

melting point	SMILES
220 °C	CC(=O)OC1CC2C(C)C(=O)C3(C(O)CC4C5(C)CCCC4(C(O)OC5)C13)C2O (centres undefined)
138 to 140 °C	O=C(NCc1ccc(S(=O)(=O)Cl)s1)c1ccc(Cl)cc1
82 to 84 °C	OC(CBr)C(O)CBr (racemic)
-60 °C	CCN(CC)c1ccccc1C
212 °C	CC(C)(S)C(N)C(=O)O (centres undefined)
142 °C	CC1C(=CC(=O)OCCN(C)C)CCC2C1C(=O)CC1C(C)(C)C(O)CCC21C (centres undefined)
118 °C	Nc1ccc(NC(=O)C(F)(F)F)cc1
222 to 224 °C	Cn1cnc(S(N)(=O)=O)c1
97 °C	COc1cc([N+](=O)[O-])ccc1S(=O)(=O)Cl
64 to 66 °C	Cc1cc(C)c([N+](=O)[O-])c(C)c1Br
187 to 188 °C	CCc1nc(NC(=O)NS(=O)(=O)c2cccs2)nc(Cl)c1C
22 to 23 °C	CCCCCCCCC=CCCCCCCCC(=O)OC(=O)CCCCCCCC=CCCCCCCCC
166 °C	Nc1ncccc1[N+](=O)[O-]
-95 °C	FC(F)(F)C(F)(Br)C(F)(F)Br (centres undefined)
199 to 201 °C	CCOC(=O)c1nnc(N)o1
97 to 101 °C	CCOC(=O)c1csc(-c2ccc(Br)s2)n1
127 °C	c1ccc(P(CCCCCCP(c2ccccc2)c2ccccc2)c2ccccc2)cc1
135 to 140 °C	CC(C)(C)OC(=O)N[C@@H](Cc1ccc(O)cc1)C(=O)O
91 to 93 °C	CC(C)(C)OC(=O)N1CCC(Oc2ccccc2[N+](=O)[O-])CC1
169 °C	ON=Cc1ccc2ccccc2c1

SMILES	melting point
Brc1ccc(Oc2cc(Br)ccc2Br)c(Br)c1	< 20 °C
CCOC(=O)C(Br)C(=O)OCC	-54 °C
CCCN(CCCl)c1c([N+](=O)[O-])cc(C(F)(F)F)cc1[N+](=O)[O-]	42 °C
COC(=O)c1cc(Oc2ccc(Cl)cc2Cl)ccc1[N+](=O)[O-]	87 °C
CC(Cl)OC(=O)Cl (centres undefined)	-65 °C
C=CCC1(CC(C)C)C(=O)NC(=O)NC1=O	138 °C
COC(=O)c1ccc(CCl)o1	32 to 36 °C
N#CCC=CCC#N	76 °C
O=C1C(Cl)C(CCl)CN1c1cccc(C(F)(F)F)c1 (centres undefined)	67.7 °C
O=[N+]([O-])c1ccc(SCl)c([N+](=O)[O-])c1	99 °C
CCC1(CC)C(=O)C=CNC1=O	90.7 °C
Ic1ccc2c(c1)Oc1ccccc1O2	95 °C
Cn1ncc(C(=O)Cl)c1Cl	50 to 52 °C
O=C(CBr)c1ccc(F)cc1	47 °C
CCCCOP(=O)(O)OCCCC	-13 °C
CCCOC1CCC2C3CCC4=CC(O)CCC4(C)C3CCC12C (centres undefined)	123 to 127 °C
